Paper PMC5362750, “Discovery of Potent, Selective, and Orally Bioavailable Small-Molecule Modulators of the Mediator Complex-Associated Kinases CDK8 and CDK19” (Journal of Medicinal Chemistry, 2016)

Assays:
ABL = ABL (Homo sapiens, UniProt P00519); assay: Kinase panel (Millipore); type: biochemical; conditions: 1 µM, ATP at Km
PKCGAMMA = PKCGAMMA (Homo sapiens, UniProt P05129); assay: Kinase panel (Millipore); type: biochemical; conditions: 1 µM, ATP at Km
PAF (h) = molecular target: T1, PAF (h) (Homo sapiens, UniProt P25105); assay: CEREP binding assay; conditions: agonist radioligand, read-out: % Inhibition of Control Specific Binding
T1 construct: purchased Millipore (KinaseProfiler) kinase panel

CK2ALPHA2 = CK2ALPHA2 (Homo sapiens, UniProt P19784); conditions: 1 µM, ATP at Km
PKCEPSILON = molecular target: T2, PKCEPSILON (Homo sapiens, UniProt Q02156); assay: Kinase panel (Millipore); type: biochemical; conditions: 1 µM, ATP at Km
T2 construct: purchased Millipore (KinaseProfiler) kinase panel
T2 sequence (Q02156 whole entry): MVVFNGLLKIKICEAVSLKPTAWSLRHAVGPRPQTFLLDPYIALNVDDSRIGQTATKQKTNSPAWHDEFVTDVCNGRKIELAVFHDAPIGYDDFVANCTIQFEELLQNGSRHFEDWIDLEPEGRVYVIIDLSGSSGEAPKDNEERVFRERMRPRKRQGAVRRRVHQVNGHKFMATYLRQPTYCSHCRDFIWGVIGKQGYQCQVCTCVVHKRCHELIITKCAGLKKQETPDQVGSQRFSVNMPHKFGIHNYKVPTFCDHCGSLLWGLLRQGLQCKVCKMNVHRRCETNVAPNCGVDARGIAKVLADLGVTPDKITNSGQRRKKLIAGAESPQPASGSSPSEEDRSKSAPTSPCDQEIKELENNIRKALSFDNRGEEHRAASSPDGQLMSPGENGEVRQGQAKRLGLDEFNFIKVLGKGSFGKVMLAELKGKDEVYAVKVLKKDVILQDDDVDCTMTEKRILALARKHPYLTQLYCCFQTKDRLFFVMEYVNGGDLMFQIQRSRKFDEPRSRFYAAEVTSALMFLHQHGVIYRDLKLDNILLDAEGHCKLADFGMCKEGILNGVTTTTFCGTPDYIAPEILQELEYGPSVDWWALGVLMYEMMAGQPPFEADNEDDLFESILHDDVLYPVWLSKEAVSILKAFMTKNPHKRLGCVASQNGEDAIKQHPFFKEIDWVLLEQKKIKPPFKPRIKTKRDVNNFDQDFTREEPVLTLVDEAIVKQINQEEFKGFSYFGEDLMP

CK1GAMMA2 = CK1GAMMA2 (Homo sapiens, UniProt P78368); assay: Kinase panel (Millipore); type: biochemical; conditions: 1 µM, ATP at Km
DYRK2 = DYRK2 (Homo sapiens, UniProt Q92630); assay: Kinase panel (Millipore); type: biochemical; conditions: 1 µM, ATP at Km
DYRK2, sequence (Q92630 whole entry): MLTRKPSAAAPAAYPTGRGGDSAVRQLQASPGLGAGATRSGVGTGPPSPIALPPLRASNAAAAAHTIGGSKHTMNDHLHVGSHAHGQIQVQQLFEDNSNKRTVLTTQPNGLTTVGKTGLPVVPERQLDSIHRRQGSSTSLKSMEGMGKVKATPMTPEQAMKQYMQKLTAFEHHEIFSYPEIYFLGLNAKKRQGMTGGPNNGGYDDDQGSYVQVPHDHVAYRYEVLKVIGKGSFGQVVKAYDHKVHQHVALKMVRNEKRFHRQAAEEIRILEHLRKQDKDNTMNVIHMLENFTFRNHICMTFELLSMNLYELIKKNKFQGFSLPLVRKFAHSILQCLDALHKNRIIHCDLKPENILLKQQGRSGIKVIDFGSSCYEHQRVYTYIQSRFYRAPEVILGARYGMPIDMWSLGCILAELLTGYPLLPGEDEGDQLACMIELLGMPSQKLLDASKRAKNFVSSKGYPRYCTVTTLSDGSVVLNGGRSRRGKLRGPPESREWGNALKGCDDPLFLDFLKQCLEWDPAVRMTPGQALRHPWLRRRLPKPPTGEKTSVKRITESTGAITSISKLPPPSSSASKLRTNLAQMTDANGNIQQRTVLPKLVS

HIPK1 = molecular target: T3, HIPK1 (Homo sapiens, UniProt Q86Z02); assay: Kinase panel (Millipore); type: biochemical; conditions: 1 µM, ATP at Km
T3 construct: purchased Millipore (KinaseProfiler) kinase panel

CAMKIIGAMMA = CAMKIIGAMMA (Homo sapiens, UniProt Q13555); assay: Kinase panel (Millipore); type: biochemical; conditions: 1 µM, ATP at Km
CCK2 (CCKB) (h) = CCK2 (CCKB) (h) (Homo sapiens, UniProt P32239); assay: CEREP binding assay; conditions: agonist radioligand, read-out: % Inhibition of Control Specific Binding
MELK = molecular target: T4, MELK (Homo sapiens, UniProt Q14680); assay: Kinase panel (Millipore); type: biochemical; conditions: 1 µM, ATP at Km
T4 construct: purchased Millipore (KinaseProfiler) kinase panel
T4 sequence (Q14680 whole entry): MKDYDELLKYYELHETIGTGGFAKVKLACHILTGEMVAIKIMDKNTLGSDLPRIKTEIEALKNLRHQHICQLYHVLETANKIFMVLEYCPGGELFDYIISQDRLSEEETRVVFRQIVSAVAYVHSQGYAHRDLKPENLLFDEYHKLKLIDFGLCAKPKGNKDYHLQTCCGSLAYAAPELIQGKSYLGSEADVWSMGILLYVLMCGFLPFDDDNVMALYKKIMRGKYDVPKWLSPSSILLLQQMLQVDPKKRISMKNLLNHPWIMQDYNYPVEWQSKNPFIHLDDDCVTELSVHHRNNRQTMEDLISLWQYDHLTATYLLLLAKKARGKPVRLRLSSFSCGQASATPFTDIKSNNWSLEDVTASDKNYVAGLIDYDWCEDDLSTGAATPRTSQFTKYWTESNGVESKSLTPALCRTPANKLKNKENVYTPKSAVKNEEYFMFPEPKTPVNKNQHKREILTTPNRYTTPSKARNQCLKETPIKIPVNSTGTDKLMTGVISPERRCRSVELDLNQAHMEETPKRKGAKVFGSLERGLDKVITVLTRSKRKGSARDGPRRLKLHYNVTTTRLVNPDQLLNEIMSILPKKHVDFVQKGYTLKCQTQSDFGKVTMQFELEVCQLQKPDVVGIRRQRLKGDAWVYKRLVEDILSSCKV

SAPK3 = SAPK3 (Homo sapiens, UniProt P53778); assay: Kinase panel (Millipore); type: biochemical; conditions: 1 µM, ATP at Km
CK1GAMMA1 = CK1GAMMA1 (Homo sapiens, UniProt Q9HCP0); assay: Kinase panel (Millipore); type: biochemical; conditions: 1 µM, ATP at Km
CK1GAMMA1, sequence (Q9HCP0 whole entry): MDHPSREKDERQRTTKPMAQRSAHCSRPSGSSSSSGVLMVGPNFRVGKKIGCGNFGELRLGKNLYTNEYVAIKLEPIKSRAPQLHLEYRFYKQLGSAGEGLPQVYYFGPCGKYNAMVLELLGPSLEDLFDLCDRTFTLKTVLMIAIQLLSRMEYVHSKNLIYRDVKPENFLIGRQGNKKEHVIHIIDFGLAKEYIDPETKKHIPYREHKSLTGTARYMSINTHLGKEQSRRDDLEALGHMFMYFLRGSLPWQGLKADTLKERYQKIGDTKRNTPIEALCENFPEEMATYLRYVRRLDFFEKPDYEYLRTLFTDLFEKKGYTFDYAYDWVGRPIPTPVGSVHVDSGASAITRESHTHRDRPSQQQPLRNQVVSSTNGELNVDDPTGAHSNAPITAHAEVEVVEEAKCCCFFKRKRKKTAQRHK

[1] = tested on: Ca2+ channel (L, dihydropyridine site); conditions: 10 µM, antagonist radioligand
TIE2(R849W) = TIE2(R849W) (Homo sapiens, UniProt Q02763, R849W); conditions: 1 µM, ATP at Km
TIE2(R849W), sequence (Q02763 771-1124 R849W limits assumed): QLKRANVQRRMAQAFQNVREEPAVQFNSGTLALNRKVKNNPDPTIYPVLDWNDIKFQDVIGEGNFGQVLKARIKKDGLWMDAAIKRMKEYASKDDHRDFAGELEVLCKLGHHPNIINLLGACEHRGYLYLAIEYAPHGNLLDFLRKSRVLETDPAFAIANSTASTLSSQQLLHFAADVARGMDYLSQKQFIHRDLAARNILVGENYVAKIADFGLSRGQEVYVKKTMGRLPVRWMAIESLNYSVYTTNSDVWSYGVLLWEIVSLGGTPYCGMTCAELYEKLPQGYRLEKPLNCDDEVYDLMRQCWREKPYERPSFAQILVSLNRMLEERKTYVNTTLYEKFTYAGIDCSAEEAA

CDK5/P25 = CDK5/P25 (Homo sapiens, UniProt Q00535); conditions: 1 µM, ATP at Km
SAPK2B = SAPK2B (Homo sapiens, UniProt Q15759); assay: Kinase panel (Millipore); type: biochemical; conditions: 1 µM, ATP at Km
FYN = FYN (Homo sapiens, UniProt P06241); assay: Kinase panel (Millipore); type: biochemical; conditions: 1 µM, ATP at Km
FYN, sequence (P06241 whole entry): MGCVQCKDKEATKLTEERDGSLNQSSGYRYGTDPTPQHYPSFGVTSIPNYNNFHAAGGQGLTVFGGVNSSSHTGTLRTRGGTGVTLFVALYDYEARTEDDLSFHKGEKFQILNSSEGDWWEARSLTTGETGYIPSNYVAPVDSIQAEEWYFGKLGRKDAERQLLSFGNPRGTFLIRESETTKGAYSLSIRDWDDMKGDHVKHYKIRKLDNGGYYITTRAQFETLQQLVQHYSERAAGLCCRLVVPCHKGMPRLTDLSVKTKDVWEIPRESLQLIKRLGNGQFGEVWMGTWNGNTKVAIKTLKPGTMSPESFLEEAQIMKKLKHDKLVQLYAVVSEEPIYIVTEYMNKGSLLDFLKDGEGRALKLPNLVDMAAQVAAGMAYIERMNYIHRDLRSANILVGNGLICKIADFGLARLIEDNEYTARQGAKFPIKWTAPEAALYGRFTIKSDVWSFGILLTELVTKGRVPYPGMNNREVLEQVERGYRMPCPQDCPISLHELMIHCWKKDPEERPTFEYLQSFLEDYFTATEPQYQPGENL

RY3 (ryanodine) = conditions: 10 µM, agonist radioligand
PAK6 = PAK6 (Homo sapiens, UniProt Q9NQU5); assay: Kinase panel (Millipore); type: biochemical; conditions: 1 µM, ATP at Km
H3 (h) = molecular target: T5, H3 (h) (Homo sapiens, UniProt Q9Y5N1); assay: CEREP binding assay; conditions: agonist radioligand, read-out: % Inhibition of Control Specific Binding
T5 construct: purchased Millipore (KinaseProfiler) kinase panel

MTOR = MTOR (Homo sapiens, UniProt P42345); assay: Kinase panel (Millipore); type: biochemical; conditions: 1 µM, ATP at Km
ALK = molecular target: T6, ALK (Homo sapiens, UniProt Q9UM73); assay: Kinase panel (Millipore); type: biochemical; conditions: 1 µM, ATP at Km
T6 construct: purchased Millipore (KinaseProfiler) kinase panel

MRCKALPHA = molecular target: T7, MRCKALPHA (Homo sapiens, UniProt Q5VT25); assay: Kinase panel (Millipore); type: biochemical; conditions: 1 µM, ATP at Km
T7 construct: purchased Millipore (KinaseProfiler) kinase panel

cMET (D1246N) = cMET (D1246N) (Homo sapiens, UniProt P08581, D1228N); conditions: 1 µM, ATP at Km
kainate = conditions: 10 µM, agonist radioligand
DRAK1 = molecular target: T8, DRAK1 (Homo sapiens, UniProt Q9UEE5); assay: Kinase panel (Millipore); type: biochemical; conditions: 1 µM, ATP at Km
T8 construct: purchased Millipore (KinaseProfiler) kinase panel

YES = YES (Homo sapiens, UniProt P07947); assay: Kinase panel (Millipore); type: biochemical; conditions: 1 µM, ATP at Km
ROCK-I = ROCK-I (Homo sapiens, UniProt Q13464); assay: Kinase panel (Millipore); type: biochemical; conditions: 1 µM, ATP at Km
[…](D842V) = […](D842V) (Homo sapiens, UniProt P16234, D842V); conditions: 1 µM, ATP at Km
HIPK3 = molecular target: T9, HIPK3 (Homo sapiens, UniProt Q9H422); assay: Kinase panel (Millipore); type: biochemical; conditions: 1 µM, ATP at Km
T9 construct: purchased Millipore (KinaseProfiler) kinase panel

TR (TH) = conditions: 10 µM, agonist radioligand
CCR2 (h) = molecular target: T10, CCR2 (h) (Homo sapiens, UniProt P41597); assay: CEREP binding assay; conditions: agonist radioligand, read-out: % Inhibition of Control Specific Binding
T10 construct: purchased Millipore (KinaseProfiler) kinase panel
T10 sequence (P41597 whole entry): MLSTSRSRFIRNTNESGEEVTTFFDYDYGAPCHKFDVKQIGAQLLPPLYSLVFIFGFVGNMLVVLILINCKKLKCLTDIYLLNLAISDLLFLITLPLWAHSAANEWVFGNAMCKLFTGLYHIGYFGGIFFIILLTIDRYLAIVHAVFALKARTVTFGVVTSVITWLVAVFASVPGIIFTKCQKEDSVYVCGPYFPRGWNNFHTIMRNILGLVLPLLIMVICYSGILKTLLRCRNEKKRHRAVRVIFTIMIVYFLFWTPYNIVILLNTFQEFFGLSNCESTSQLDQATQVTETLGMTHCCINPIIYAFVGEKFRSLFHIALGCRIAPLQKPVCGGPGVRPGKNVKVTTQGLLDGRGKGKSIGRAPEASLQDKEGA

RON = molecular target: T11, RON (Homo sapiens, UniProt Q04912); assay: Kinase panel (Millipore); type: biochemical; conditions: 1 µM, ATP at Km
T11 construct: purchased Millipore (KinaseProfiler) kinase panel

ROCK-II = ROCK-II (Homo sapiens, UniProt O75116); assay: Kinase panel (Millipore); type: biochemical; conditions: 1 µM, ATP at Km
MST2 = molecular target: T12, MST2 (Homo sapiens, UniProt Q13188); assay: Kinase panel (Millipore); type: biochemical; conditions: 1 µM, ATP at Km
T12 construct: purchased Millipore (KinaseProfiler) kinase panel

GABAB(1b) (h) = GABAB(1b) (h) (Homo sapiens, UniProt Q9UBS5); assay: biochemical; conditions: read-out: % Inhibition of Control Specific Binding
ACK1 = molecular target: T13, ACK1 (Homo sapiens, UniProt Q07912); assay: Kinase panel (Millipore); type: biochemical; conditions: 1 µM, ATP at Km
T13 construct: purchased Millipore (KinaseProfiler) kinase panel

ZAP-70 = molecular target: T14, ZAP-70 (Homo sapiens, UniProt P43403); assay: Kinase panel (Millipore); type: biochemical; conditions: 1 µM, ATP at Km
T14 construct: purchased Millipore (KinaseProfiler) kinase panel

AXL = molecular target: T15, AXL (Homo sapiens, UniProt P30530); assay: Kinase panel (Millipore); type: biochemical; conditions: 1 µM, ATP at Km
T15 construct: purchased Millipore (KinaseProfiler) kinase panel

ABL, sequence (P00519 whole entry): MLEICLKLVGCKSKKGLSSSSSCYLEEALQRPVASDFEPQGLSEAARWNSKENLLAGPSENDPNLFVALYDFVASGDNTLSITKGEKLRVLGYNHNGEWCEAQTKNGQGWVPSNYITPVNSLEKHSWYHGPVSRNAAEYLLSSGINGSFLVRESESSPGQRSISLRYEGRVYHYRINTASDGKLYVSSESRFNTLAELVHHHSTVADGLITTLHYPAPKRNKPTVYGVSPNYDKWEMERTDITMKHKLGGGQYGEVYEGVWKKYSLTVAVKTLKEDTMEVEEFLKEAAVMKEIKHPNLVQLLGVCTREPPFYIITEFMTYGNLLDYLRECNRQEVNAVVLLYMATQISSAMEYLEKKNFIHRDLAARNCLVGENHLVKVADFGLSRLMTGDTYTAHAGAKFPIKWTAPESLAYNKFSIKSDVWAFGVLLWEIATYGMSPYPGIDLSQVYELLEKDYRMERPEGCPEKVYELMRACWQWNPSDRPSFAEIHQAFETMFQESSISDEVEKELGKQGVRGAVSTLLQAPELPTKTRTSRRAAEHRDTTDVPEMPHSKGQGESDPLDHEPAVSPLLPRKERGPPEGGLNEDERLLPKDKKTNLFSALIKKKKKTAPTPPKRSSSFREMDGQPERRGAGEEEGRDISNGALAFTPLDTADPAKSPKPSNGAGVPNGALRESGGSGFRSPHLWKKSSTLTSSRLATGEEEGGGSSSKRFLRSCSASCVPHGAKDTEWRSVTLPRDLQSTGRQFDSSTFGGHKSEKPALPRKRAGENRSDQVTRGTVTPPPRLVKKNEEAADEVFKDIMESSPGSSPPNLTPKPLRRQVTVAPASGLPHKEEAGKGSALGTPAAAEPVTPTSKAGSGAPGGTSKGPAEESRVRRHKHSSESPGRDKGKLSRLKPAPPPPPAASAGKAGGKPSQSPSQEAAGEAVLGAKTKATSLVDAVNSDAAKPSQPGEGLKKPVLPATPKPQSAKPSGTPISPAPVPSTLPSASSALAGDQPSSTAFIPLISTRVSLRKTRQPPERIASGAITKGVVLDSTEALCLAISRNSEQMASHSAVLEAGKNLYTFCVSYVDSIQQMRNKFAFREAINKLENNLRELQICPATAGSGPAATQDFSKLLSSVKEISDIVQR

SMILES: Cn1ncc2cc(-c3cnc(N)c(Cl)c3N3CCC4(CCNC4=O)CC3)ccc21 [Compound 109, 8-(2-Amino-3-chloro-5-(1-methyl-1H-indazol-5-yl)pyridin-4-yl)-2,8-diazaspiro[4.5]decan-1-one]
- % effect (ABL): -15%
- % effect (PKCGAMMA): -6%
- inhibition at 10 µM (PAF (h)): -4%
- % effect (CK2ALPHA2): -13%
- % effect (PKCEPSILON): -21%
- % effect (CK1GAMMA2): 5%
- % effect (DYRK2): -9%
- % effect (HIPK1): 5%
- % effect (CAMKIIGAMMA): 8%
- inhibition at 10 µM (CCK2 (CCKB) (h)): 0%
- % effect (MELK): 3%
- % effect (SAPK3): 4%
- % effect (CK1GAMMA1): -5%
- % Inhibition of Control Specific Binding [1]: -16%
- % effect (TIE2(R849W)): -9%
- % effect (CDK5/P25): 13%
- % effect (SAPK2B): -3%
- % effect (FYN): 23%
- % Inhibition of Control Specific Binding (RY3 (ryanodine)): 1%
- % effect (PAK6): 2%
- inhibition at 10 µM (H3 (h)): 3%
- % effect (MTOR): -3%
- % effect (ALK): 4%
- % effect (MRCKALPHA): -3%
- % effect (cMET (D1246N)): -2%
- % Inhibition of Control Specific Binding (kainate): 9%
- % effect (DRAK1): 1%
- % effect (YES): -2%
- % effect (ROCK-I): 6%
- % effect ([…](D842V)): -10%
- % effect (HIPK3): 18%
- % Inhibition of Control Specific Binding (TR (TH)): -13%
- inhibition at 10 µM (CCR2 (h)): -9%
- % effect (RON): -1%
- % effect (ROCK-II): -10%
- % effect (MST2): -11%
- inhibition at 10 µM (GABAB(1b) (h)): 2%
- % effect (ACK1): -11%
- % effect (ZAP-70): 21%
- % effect (AXL): -4%
